Source: patent publication US20060172418A1, “Hypercoiling polymers and their use in cellular delivery” (priority 2002, published 2006)
“Also recorded” adds a separate entry of the source. Read-outs that look alike come from different tables or passages of the source.

Key:
[1] = at 25° C.; cited from earlier work
MCF7 cells [2] = assay: Polymer-conjugated doxorubicin uptake (flow cytometry); format: cell-based, human; details: 2 mM doxorubicin or equivalent; for uptake into cells: serum-free medium
Description: (§1) Control solutions, containing polymer (with no doxorubicin) and medium alone were also prepared. […] Samples (1 mL) of each test solution were placed in Eppindorf centrifuge tubes and placed in an incubator at 37° C. under a 5% CO2 atmosphere. 2×10^6 cells of each type were suspended in 300 μL of cell culture media (10% foetal calf serum, 2 mM L-Glutamine, 100 U/mL penicillin and 100 μg/mL streptomycin) and incubated at 37° C. under a 5% CO2 atmosphere. The study was initiated by adding 10 μL of cells to each test sample. After selected exposure times, the cells were pelleted by centrifuge and placed on ice. The cells were then re-suspended in phosphate buffer and analysed using a flow cytometer gated to count […] (approximately 10% of the total cell count). A histogram of fluorescence intensity vs. number of events, and the median value of fluorescence intensity, was recorded for each sample. Background fluorescence for cells alone, or for cells with DMSO, was subtracted from the corresponding test samples.

MCF7/MXR cells [3] = assay: as above; format: cell-based, human; details: 2 mM doxorubicin or equivalent; for uptake into cells: serum-free medium
Description: as §1

MCF7 cells [4] = details: 5 days
Description: (§2) Subsequently, a standard MTT (3-(4,5-dimethylthiazol-2-yl)-2,5-diphenyl-2H-tetrazolium bromide) assay was performed in order to assess cell viability.
(§3) The total DMSO concentration was adjusted to 1% by volume, and the cells incubated at 37° C. under a 5% CO2 atmosphere for 5 days. […] Subsequently, a standard MTT assay was performed in order to assess cell viability.

MCF7/MXR cells [5] = details: 5 days
Description: as §2, §3

CHO cells [6] = assay: Uptake and internalisation of PD30 (LSCM); format: cell-based, Chinese hamster; details: pH 7.4, 37° C., 30 minutes; PD30 1 mg/mL, free dyes 0.01 mg/mL
Description: (§4) CHO or HepG2 cells (80,000 cells/mL) were seeded into Willco dishes and incubated overnight (24 hours) at 37° C. in a humidity controlled incubator in an air atmosphere supplemented with 5% CO2.
(§5) The cells were then washed three times with 2 mL D-PBS (Sigma, Poole, Dorset, UK) to remove excess serum. 2 mL of PD30 at a concentration of 1 mg/mL in D-PBS (pH 7.4) was added, and the cells incubated for 10 minutes at 37° C. in a humidity controlled incubator in an air atmosphere supplemented with 5% CO2.
(§6) Controls were prepared similarly, by the addition of 2 mL of bis-amino Cy3 at a concentration of 0.01 mg/mL in D-PBS (pH 7.4), or 2 mL of bis-sulphonic acid Cy3 at a concentration of 0.01 mg/mL in D-PBS (pH 7.4), followed by incubation for 10 minutes at 37° C. in a humidity controlled incubator in an air atmosphere supplemented with 5% CO2.
(§7) Laser Scanning Confocal Microscopy (LSCM) images were then obtained at 10 minute intervals, using an Olympus FV300 LSCM (Department of Chemical Engineering, University of Cambridge, Cambridge, Cambridgeshire, UK). The cells remained on the microscope for the duration of the imaging experiments.

HepG2 cells [7] = assay: Uptake and internalisation of PD30 (LSCM); format: cell-based, Human; details: pH 7.4, 37° C., 30 minutes; PD30 1 mg/mL, bis-amino Cy3 0.01 mg/mL
Description: as §4, §5, §6, §7

[8] = Spectrophotometric titration with HCl; format: physicochemical; details: read-out: pKa of the bis-amino groups
Description: Aqueous solutions of polymers were titrated by with 1.0 N HCl delivered to an Aminco-SDP-125 spectrofluorimeter, equipped with a flow through cell, from a titration vessel, via a peristaltic pump.
Spectrophotometric titrations were carried out for a mixture of poly(L-lysine iso-phthalamide) at a concentration of 0.5 g/l and free bis-amino Cy3 at a fluorophore concentration of 0.26 mM (0.1 g/l), which yields the maximum emission intensity for this polymer/fluorophore combination.

CHO cells [9] = assay: Interaction of PD20 with CHO cells at pH 7.4 and pH 5.5 (fluorescence microscopy); format: cell-based, Chinese hamster; details: 30 minute incubation at 37° C.
Description: A 2 mL suspension of CHO cells (10^5 cells/mL) was seeded into WilCo dishes (Intracel, Royston, UK) and incubated overnight (24 hours) at 37° C. in a humidity controlled incubator in an air atmosphere supplemented with 5% CO2.
The CHO cells were then washed three times with 100 μl of D-PBS (Sigma, Poole, Dorset, UK) to remove excess serum. 2 mL of PD20 (1 mg/mL) in D-PBS (Sigma, Poole, Dorset, UK) at pH 7.4 or titrated to pH 5.5 with 0.1 M HCl was then added to the Willco dishes.
The dishes were incubated for 30 minutes, the PD20 removed (by aspiration) and the cells washed three times with 2 mL D-PBS (Sigma, Poole, Dorset, UK) adjusted to pH 7.4 or pH 5.5 with 1.0 M HCl.
The CHO cells were then re-suspended in 2 mL of D-PBS at pH 7.4 or titrated to pH 5.5 with 0.1 M HCl and fluorescent photomicrogram images obtained on a Laser Scanning Confocal Zeiss LSM410 microscope (λex 535 nm, λem 570 nm) with a ×20 magnification lens (Amersham Biosciences, Cardiff, UK).
Phase contrast images of the CHO cells were obtained on the same microscope in non-fluorescence mode.

HepG2 cells [10] = assay: Co-localisation of PD20 with FITC-Alexa Fluor 488; format: cell-based, Human; details: 1 mg/mL, 15 minutes, pH 7.4
Description: HepG2 cells (80,000/mL) were seeded into WilCo dishes, and incubated overnight (24 hours) at 37° C. in a humidity controlled incubator in an air atmosphere supplemented with 5% CO2.
The HepG2 cells were then incubated for a period of 15 minutes with a mixture of PD20 at a concentration of 1 mg/mL and the endosomal labelling fluorophore FITC-Alexa Fluor 488 (Cambridge Biosciences, Cambridge, UK) at a concentration of 50 μg/mL in serum free medium (Dulbecco's Modified Eagle Medium, DMEM) appropriate for HepG2 cells (total volume 2 mL) at pH 7.4.
The supernatant was then removed and the cells washed three times with 2 mL DMEM. 2 mL of fresh D-PBS was added to each dish and the CHO cells were then imaged on a Zeiss LSM410 confocal microscope (λex 535 nm, λem 570 nm for PD20, λex 495 nm, λem 518 nm for FITC Alexa Fluor 488) (Amersham Biosciences, Cardiff, UK).

CHO cells [11] = assay: Interaction of PD20 with CHO cells at pH 7.4, 6.0 or 5.0 (confocal time course); format: cell-based, Chinese hamster
Description: CHO cells (80,000/mL) were seeded into WilCo dishes and incubated overnight (24 hours) at 37° C. in a humidity controlled incubator in an air atmosphere supplemented with 5% CO2.
The CHO cells were then washed three times with 2 mL D-PBS (Sigma, Poole, Dorset, UK) to remove excess serum and incubated with 2 mL PD20 (1 mg/mL) in serum-free medium (F12 Nutrient Ham Mixture, Sigma, Poole, Dorset, UK) titrated to pH 7.4, 6.0, or 5.0 with 0.1 M HCl.
The CHO cells were then incubated for 10 minutes and washed three times with 2 mL D PBS (pH 7.4, 6.0, or 5.0). 2 mL of fresh D-PBS at the required pH (pH 7.4, 6.0, or 5.0) was added to each dish and the CHO cells were then imaged on a Zeiss LSM410 confocal microscope (Amersham Biosciences, Cardiff, UK) for 1 hour at 10 minute intervals (to reduce photobleaching and cell exposure to the laser). The cells were maintained at 37° C. on an integral heater stage.
The confocal microscope images were quantified using Metamorph™ software to give the fluorescence intensity.

| Compound | effect of 1% DMSO on uptake (MCF7 cells [2]) | uptake into cells (MCF7 cells [2]) | effect of 1% DMSO on uptake (MCF7/MXR cells [3]) | uptake into cells (MCF7/MXR cells [3]) | subcellular localisation after uptake (CHO cells [6]) | nuclear staining (HepG2 cells [7]) | subcellular localisation after uptake (HepG2 cells [7]) | further results |
| --- | --- | --- | --- | --- | --- | --- | --- | --- |
| NCCCC[C@H](N)C(=O)O [lysine] | – | – | – | – | – | – | – | pKa [1]: about 2.18 |
| COc1cccc2c1C(=O)c1c(O)c3c(c(O)c1C2=O)C[C@@](O)(C(=O)CO)C[C@@H]3O[C@H]1C[C@H](N)[C@H](O)[C@H](C)O1 [doxorubicin, reference compound] | significantly enhances | taken up into cells | significantly enhances | taken up into cells | – | – | – | cytotoxic effect (MCF7 cells [4]; 1% by volume of DMSO): significant cytotoxic effects; cytotoxic effect (MCF7 cells [4]; without DMSO): significant cytotoxic effects; cytotoxic effect (MCF7/MXR cells [5]; 1% by volume of DMSO): significant cytotoxic effects; cytotoxic effect (MCF7/MXR cells [5]; without DMSO): significant cytotoxic effects |
| Poly(L-lysine-co-Cy3-iso-phthalamide) [PD30] | – | – | – | – | localised in the nucleus | heavy staining in the nucleus; also recorded: extensive nuclear staining | localised in the nucleus | nuclear staining (CHO cells [6]): heavily stained; also recorded: clearly associated with the nucleus |
| poly(lysine iso-phthalamide-co-lysine DOX iso-phthalamide) [polymer-conjugated doxorubicin] | little effect | taken up into cells | little effect | taken up into cells | – | – | – | – |
| CCN1/C(=C/C=C/C2=[N+](CC)c3ccc(CN)cc3C2(C)C)C(C)(C)c2cc(CN)ccc21 [bis-amino Cy3, reference compound] | – | – | – | – | localised in the endosome | No nuclear staining | localised in the endosome | pKa [8]: 9.5 |
| Poly(L-lysine-co-Cy3-iso-phthalamide) [PD20] | – | – | – | – | – | – | – | adsorption onto the extracellular membrane of CHO cells (CHO cells [9]; pH 5.5, 1 mg/mL): extensive adsorption; adsorption onto the membrane of CHO cells (CHO cells [9]; pH 7.4, 1 mg/mL): weakly adsorbed; co-localisation with endosomal stain FITC-Alexa Fluor 488 (HepG2 cells [10]): uptake of the PD20 into the endosomal compartment; initial relative fluorescence intensity of cells at pH 6.0 and pH 5.0 versus pH 7.4 (CHO cells [11]; 1 mg/mL): more than three times larger; time at which fluorescence intensity peaked (CHO cells [11]; pH 5.0, 1 mg/mL): 20 min; time at which fluorescence intensity peaked (CHO cells [11]; pH 6.0, 1 mg/mL): 30 min; relative fluorescence intensity of the cells with time (CHO cells [11]; pH 7.4, 1 mg/mL): gradual increase |
